The text below walks through data of patent US20220168400A1, “USE OF A MANGANESE SUPEROXIDE DISMUTASE WITH HIGH STABILITY IN THE PREVENTION OR TREATMENT OF CEREBRAL STROKE” (CARRY HEALTH BIOPHARMACEUTICALS (HANGZHOU) CO., LTD., priority 2019, published 2022).

Marks after values point to notes of the source that are not given here.

Holding throughout (type): in vivo
In test [1] the test system is cerebral hemorrhage model in wild-type AB strain zebrafish. Nature of the test: Simvastatin-induced cerebral hemorrhage model in zebrafish (incidence). As to conditions: icariin 30 μM; for Incidence of cerebral hemorrhage: model control 83%. As to the method: 1 dpf wild-type AB strain zebrafish was administered with an aqueous simvastatin solution (0.5 μM) for 18 hours to establish a cerebral hemorrhage model in zebrafish. 180 wild-type AB strain zebrafishes at 1 day post fertilization (1 dpf) were randomly selected and put in a six-well plate, 30 per well (experiment group). Simvastatin was used to induce a cerebral hemorrhage model in zebrafish. Aqueous MS-SOD solutions with concentrations of 222, 667 and 2000 μg/mL were administrated respectively, the concentration of positive control drug icariin was 30 μM, and the normal control group and the model control group were set at the same time. The volume of each well was 3 mL. After 18 hours of co-treatment with MS-SOD and simvastatin, 30 zebrafishes from each group were selected and observed under a microscope, photos were taken and saved. The number of zebrafish with cerebral hemorrhage was counted, and the incidence of cerebral hemorrhage in zebrafish of each experiment group was calculated.

Test [2] has the same test system. Nature of the test: Movement velocity in simvastatin-induced cerebral hemorrhage model in zebrafish. As to conditions: icariin 30 μM (Table 3 prints 25 μg/mL); for Movement velocity (mean ± SE): n = 10, model control 80, normal control 198 mm/s. As to the method: 5 dpf wild-type AB strain zebrafish was administered with an aqueous simvastatin solution (0.5 μM) for 18 hours to establish a cerebral hemorrhage model in zebrafish. 180 wild-type AB strain zebrafishes at 5 days post fertilization (5 dpf) were randomly selected and put in a six-well plate, 30 per well (experiment group). Aqueous MS-SOD solutions with concentrations of 222, 667 and 2000 μg/mL were administrated respectively, the concentration of positive control drug icariin was 30 μM, and the normal control group and the model control group were set at the same time. The volume of each well was 3 mL. After treatment of zebrafishes with samples for 4 hours, except for the normal control group, the other experiment groups were treated with simvastatin for 18 hours to establish the cerebral hemorrhage model. After the treatment, 10 zebrafishes from each group were randomly selected to measure the movement velocity (V) of zebrafish using a behavioral analyzer. The statistical significance of the movement velocity was used to evaluate the behavioral improvement effect of MS-SOD on cerebral hemorrhage. The formula of the behavioral improvement effect of MS-SOD on cerebral hemorrhage was as follows: [formula] Statistical analysis was performed using variance analysis and Dunnett's T-test, and p<0.05 indicated a significant difference.

The test system is the same in test [3]. Description: Blood flow volume in simvastatin-induced cerebral hemorrhage model in zebrafish. As to conditions: icariin 30 μM; for Blood flow volume (mean ± SE): n = 10, model control 0.13, normal control 0.30 nL/s. As to the method:
3 dpf wild-type AB strain zebrafish was administered with an aqueous simvastatin solution (0.5 μM) for 18 hours to establish a cerebral hemorrhage model in zebrafish. 180 wild-type AB strain zebrafishes at 3 days post fertilization (3 dpf) were randomly selected and put in a six-well plate, 30 per well (experiment group). Aqueous MS-SOD solutions with concentrations of 222, 667 and 2000 μg/mL were administrated respectively, the concentration of positive control drug icariin was 30 μM, and the normal control group (the zebrafishes were treated with water for fish) and the model control group were set at the same time. The volume of each well was 3 mL. After treatment of zebrafishes with samples for 4 hours, except for the normal control group, the other experiment groups were treated with simvastatin for 18 hours to establish the cerebral hemorrhage model. After the treatment, 10 zebrafishes from each group were randomly selected and placed in a heart rate and blood flow analysis system to record blood flow video of zebrafish, and analyze the blood flow volume (O) of zebrafish. The statistical significance of the blood flow volume was used to evaluate the improvement effect of MS-SOD on blood flow volume of cerebral hemorrhage. The formula of the improvement effect of MS-SOD on blood flow volume of cerebral hemorrhage was as follows: [formula] Statistical analysis was performed using variance analysis and Dunnett's T-test, and p<0.05 indicated a significant difference. 4.

The test system of test [4] is cerebral ischemia model in Albino strain zebrafish. Nature of the test: Ponatinib-induced cerebral ischemia model in zebrafish. The note with it: aspirin 50 μg/mL; for Incidence of cerebral ischemia: model control 100%. As to the method: Melanin allele mutated Albino strain zebrafish at 2 days post fertilization (2 dpf) was administered with an aqueous ponatinib solution (1 μg/mL) for 18 hours to establish a cerebral ischemia model in zebrafish. 180 melanin allele mutated Albino strain zebrafishes at 2 days post fertilization (2 dpf) were randomly selected. 30 zebrafishes were treated in each well (experiment group), and aqueous MS-SOD solutions with concentrations of 222, 667 and 2000 μg/mL were administrated respectively, the concentration of positive control drug aspirin was 50 μg/m L, and the normal control group and the model control group were set at the same time. The volume of each well was 3 mL. After MS-SOD treatment for a period of time, except for the normal control group, all the other experiment groups were simultaneously administrated with aqueous ponatinib solution to induce the cerebral ischemia model in zebrafish. After 18 hours of co-treatment with MS-SOD and ponatinib, 20 fish were randomly selected from each well and stained with o-Dianisidine. After staining, photos were taken and data were collected to count the number of zebrafish with cerebral ischemia and calculate the incidence of cerebral ischemia in zebrafish of each experiment group.

For `COc1ccc(-c2oc3c(CC=C(C)C)c(O[C@@H]4O[C@H](CO)[C@@H](O)[C@H](O)[C@H]4O)cc(O)c3c(=O)c2O[C@@H]2O[C@@H](C)[C@H](O)[C@@H](O)[C@H]2O)cc1` [Icariin, icariin, reference compound], the results for the “Improvement effect on cerebral hemorrhage” value in test [1] and in test [1] (listed as icariin) were 32* % and 32%, respectively. In addition, in test [1] (n = 30), the “Number of zebrafish with cerebral hemorrhage” value was determined as 17. Moreover, the “Incidence of cerebral hemorrhage” value is given as 56* % in test [1] (n = 30) and 57% in test [1] (n = 30, listed as icariin). The Movement improvement effect in test [2] is recorded as 22* %; in test [2] (listed as icariin), 22%. Moreover, the “Movement velocity (mean ± SE)” value in test [2] is 106 ± 7 mm/s; in test [2] (listed as icariin), 106 mm/s. Moreover, the “Blood flow volume improvement effect” value in test [3] stood at 29%. The “Blood flow volume (mean ± SE)” value in test [3] is recorded as 0.18 ± 0.025 nL/s; in test [3] (listed as icariin) it was 0.18 nL/s.

Take `CC(=O)Oc1ccccc1C(=O)O` [Aspirin, aspirin, reference compound]: the “Improvement effect on cerebral ischemia” value in test [4] is 65*** %; in test [4] (listed as aspirin) it was 65%. Besides, the “Number of zebrafish with cerebral ischemia” value in test [4] (n = 20) turned out to be 7. The “Incidence of cerebral ischemia” value is 35*** % in test [4] (n = 20) and 35% in test [4] (n = 20, listed as aspirin).
